Measured values published in publication PMC6386767, “Characterization of recombinant fructose-1,6-bisphosphatase gene mutations: evidence of inhibition/activation of FBPase protein by gene mutation” (Bioscience Reports, 2019).
Numbering of substitutions follows the chain as printed.

Key:
Format in all cases: biochemical
pig kidney FBPase K112A = target: T1, pig kidney FBPase K112A (Sus scrofa, UniProt P00636, K113A); test: Malachite Green kinetic assay, K112A mutant; conditions: for IC50: FBP substrate 10 to 50 µM
T1 construct: His6 (C); made in house; host or cells: Escherichia coli BL21 (DE3)
T1 sequence (P00636 1-338 K113A): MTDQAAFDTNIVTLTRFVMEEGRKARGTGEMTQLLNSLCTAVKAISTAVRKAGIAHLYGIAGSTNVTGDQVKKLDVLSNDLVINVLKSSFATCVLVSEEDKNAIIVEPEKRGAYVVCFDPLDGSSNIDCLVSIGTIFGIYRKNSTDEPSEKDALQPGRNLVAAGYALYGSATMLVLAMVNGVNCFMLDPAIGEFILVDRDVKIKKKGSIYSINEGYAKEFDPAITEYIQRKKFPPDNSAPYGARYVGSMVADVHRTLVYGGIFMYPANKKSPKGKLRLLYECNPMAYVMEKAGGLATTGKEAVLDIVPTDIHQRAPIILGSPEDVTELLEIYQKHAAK
Procedure: (§1) For the kinetic assay, a standard curve was obtained from an ammonium molybdate Malachite Green inorganic phosphate assay (OD660 nm). The purified FBPase protein was dialyzed ×3 in 50 mM Tris buffer at pH 7.5 at 4°C. For enzyme concentration, absorbency values were recorded for all five mutant proteins using spectrophotometer readings at OD280 nm. To quantitate enzyme concentration, the enzymes were calculated based on the quantity of micrograms per microliter (µg/µl) present. Final concentration of WT and mutant enzymes was between 2.5 and 5.0 µg/µl. Using a colorimetric assay as described below, specific activity (SA) was determined. At last, all kinetic and binding assays described below were performed in 50 mM Tris pH 7.5.
(§2) Kinetic assays were performed for WT and mutant enzymes to identify functional differences between the WT enzyme and the mutants. […] Readings recorded at OD660 nm for each enzyme were applied to the standard curve equation. Micromoles of inorganic phosphate were calculated to determine the SA of mutant enzymes.
(§3) For each clone, the kinetic assay was performed in duplicates of triplicates. Malachite Geen was used to detect inorganic phosphate. Two separate clones were processed independently of the same mutant. All kinetic data were fit to symmetric sigmoidal curve using Origin software based on methods previously described [[27–29]]. More specifically, for kinetic parameters established via curve fitting (shown in Tables 1–3; and in Figure 5A,B), the equation y = d + (a − d)/1 + (x/c)^b was used where ‘x’ is represented by apparent Michelis constant (Km) when y = Vmax. […] P-values were significant at <0.001 and represent a comparison with the WT enzyme.

pig kidney FBPase M177A = target: T2, pig kidney FBPase M177A (Sus scrofa, UniProt P00636, M178A); test: Malachite Green kinetic assay, M177A mutant; conditions: for IC50: FBP substrate 10 to 50 µM
T2 construct: His6 (C); made in house; host or cells: Escherichia coli BL21 (DE3)
T2 sequence (P00636 1-338 M178A): T1 sequence (P00636 1-338 K113A) with A113K, M178A
Procedure: as §1, §2, §3

pig kidney FBPase Y164A = target: T3, pig kidney FBPase Y164A (Sus scrofa, UniProt P00636, Y165A); test: Malachite Green kinetic assay, Y164A mutant; conditions: enzyme Y164A; for IC50: FBP substrate 10 to 50 µM
T3 construct: His6 (C); made in house; host or cells: Escherichia coli BL21 (DE3)
T3 sequence (P00636 1-338 Y165A): T1 sequence (P00636 1-338 K113A) with A113K, Y165A
Procedure: as §1, §2, §3

pig kidney FBPase WT = target: T4, pig kidney FBPase WT (Sus scrofa, UniProt P00636); test: Malachite Green kinetic assay, WT enzyme; conditions: for IC50: FBP substrate 10 to 50 µM
T4 construct: His6 (C); made in house; host or cells: Escherichia coli BL21 (DE3)
T4 sequence (P00636 1-338): T1 sequence (P00636 1-338 K113A) with A113K
Procedure: as §1, §2, §3

pig kidney FBPase L56A = target: T5, pig kidney FBPase L56A (Sus scrofa, UniProt P00636, L57A); test: Malachite Green kinetic assay, L56A mutant; conditions: enzyme L56A; for IC50: FBP substrate 10 to 50 µM
T5 construct: His6 (C); made in house; host or cells: Escherichia coli BL21 (DE3)
T5 sequence (P00636 1-338 L57A): T1 sequence (P00636 1-338 K113A) with L57A, A113K
Procedure: as §1, §2, §3

[1] = association (binding) constant from saturation curve

## Nc1ncnc2c1ncn2[C@@H]1O[C@H](COP(=O)(O)O)[C@@H](O)[C@H]1O [AMP]
Pig kidney FBPase K112A; enzyme K112A_1
  IC50: 68.5 µM
Pig kidney FBPase K112A; enzyme K112A_2
  IC50: 52.3 µM
Pig kidney FBPase M177A; enzyme M177A_1
  AMP Hill coefficient: 2.6 (± 0.2)
  IC50: 3.5 µM
Pig kidney FBPase M177A; enzyme M177A_2 (second clone)
  AMP Hill coefficient: 2.8 (± 0.1)
Pig kidney FBPase M177A; enzyme M177A_2
  IC50: 3.9 µM
Pig kidney FBPase Y164A
  AMP Hill coefficient: 2.8 (± 0.2)
  IC50: 2.5 µM
Pig kidney FBPase WT
  AMP Hill coefficient: 2.2 (± 0.1)
  IC50: 7.5 µM
Pig kidney FBPase L56A
  AMP Hill coefficient: 2.3 (± 0.2)
  IC50: 7.35 µM

## O=P(O)(O)OC[C@H]1O[C@@](CO)(OP(=O)(O)O)[C@@H](O)[C@@H]1O [F2,6-BP, fructose-2,6-bisphosphate]
Pig kidney FBPase K112A; enzyme K112A
  Ki: 0.24 µM
Pig kidney FBPase K112A; enzyme K112A_1
  IC50: 1.5 µM
Pig kidney FBPase K112A; enzyme K112A_2
  IC50: 1.5 µM
Pig kidney FBPase M177A; enzyme M177A
  Ki: 0.17 µM
Pig kidney FBPase M177A; enzyme M177A_1
  IC50: 0.75 µM
Pig kidney FBPase M177A; enzyme M177A_2
  IC50: 0.62 µM
Pig kidney FBPase Y164A
  Ki: 0.15 µM
  IC50: 0.95 µM
Pig kidney FBPase WT
  Ki: 0.25 µM
  IC50: 1.5 µM
Pig kidney FBPase L56A
  Ki: 1.25 µM
  IC50: 7.5 µM

## [Mg+2] [Mg^2+, magnesium]
Pig kidney FBPase K112A; enzyme K112A, association (binding) constant from saturation curve
  Ka: 0.51 (± 0.15) mM
Pig kidney FBPase K112A; enzyme K112A, for magnesium
  Hill coefficient: 1.98 (± 0.15)
Pig kidney FBPase M177A; enzyme M177A, association (binding) constant from saturation curve
  Ka: 0.49 (± 0.18) mM
Pig kidney FBPase M177A; enzyme M177A, for magnesium
  Hill coefficient: 2.05 (± 0.12)
Pig kidney FBPase Y164A; [1]
  Ka: 0.50 (± 0.15) mM
Pig kidney FBPase Y164A; for magnesium
  Hill coefficient: 2.15 (± 0.12)
Pig kidney FBPase WT; [1]
  Ka: 0.50 (± 0.18) mM
Pig kidney FBPase WT; for magnesium
  Hill coefficient: 2.10 (± 0.15)
Pig kidney FBPase L56A; [1]
  Ka: 0.52(± 0.13) mM
Pig kidney FBPase L56A; for magnesium
  Hill coefficient: 2.75 (± 0.16)
